Assay: xn = mol fraction of the nth substance listed
Details: 101 kPa, Liquid

Clc1ccccc1 [chlorobenzene] + CCCO
mass density [kg/m3]
Details | 288.15 K | 293.15 K | 298.15 K | 303.15 K | 308.15 K | 313.15 K
x2 = 0 | 1111.81 | 1106.43 | 1101.04 | 1095.64 | 1090.23 | 1084.82
x2 = 0.0254 | 1105.92 | 1100.51 | 1095.1 | 1089.69 | 1084.26 | 1078.83
x2 = 0.0513 | 1100.01 | 1094.6 | 1089.18 | 1083.75 | 1078.3 | 1072.86
x2 = 0.0726 | 1095.18 | 1089.77 | 1084.35 | 1078.91 | 1073.46 | 1068.03
x2 = 0.0738 | 1094.9 | 1089.49 | 1084.07 | 1078.63 | 1073.18 | 1067.73
x2 = 0.1016 | 1088.48 | 1083.08 | 1077.66 | 1072.22 | 1066.77 | 1061.3
x2 = 0.1058 | 1087.51 | 1082.11 | 1076.69 | 1071.26 | 1065.81 | 1060.35
x2 = 0.1365 | 1080.3 | 1074.91 | 1069.5 | 1064.08 | 1058.63 | 1053.17
x2 = 0.2019 | 1064.7 | 1059.35 | 1053.96 | 1048.56 | 1043.17 | 1037.75
x2 = 0.2472 | 1053.55 | 1048.23 | 1042.89 | 1037.53 | 1032.14 | 1026.73
x2 = 0.2984 | 1040.5 | 1035.23 | 1029.94 | 1024.62 | 1019.26 | 1013.88
x2 = 0.3443 | 1028.6 | 1023.38 | 1018.13 | 1012.85 | 1007.53 | 1002.2
x2 = 0.4027 | 1012.95 | 1007.78 | 1002.6 | 997.378 | 992.12 | 986.836
x2 = 0.4952 | 986.837 | 981.797 | 976.724 | 971.618 | 966.472 | 961.296
x2 = 0.5492 | 970.777 | 965.817 | 960.824 | 955.797 | 950.728 | 945.63
x2 = 0.5975 | 955.977 | 951.086 | 946.167 | 941.211 | 936.213 | 931.183
x2 = 0.6447 | 940.98 | 936.176 | 931.338 | 926.463 | 921.545 | 916.599
x2 = 0.699 | 923.003 | 918.296 | 913.559 | 908.798 | 903.973 | 899.127
x2 = 0.7494 | 905.686 | 901.079 | 896.443 | 891.773 | 887.057 | 882.312
x2 = 0.8008 | 887.239 | 882.746 | 878.223 | 873.664 | 869.063 | 864.438
x2 = 0.8473 | 869.896 | 865.508 | 861.093 | 856.643 | 852.152 | 847.622
x2 = 0.8955 | 851.18 | 846.915 | 842.621 | 838.296 | 833.934 | 829.53
x2 = 0.9192 | 841.722 | 837.516 | 833.28 | 829.014 | 824.709 | 820.375
x2 = 0.9497 | 829.134 | 825.009 | 820.857 | 816.677 | 812.457 | 808.213
